# Reference: patent US11180462B2, “Microbiocidal oxadiazole derivatives” (SYNGENTA PARTICIPATIONS AG, priority 2015, dated 2021)
# Tested on: Glomerella lagenarium (Colletotrichum lagenarium)
# Assay: Fungicidal activity against Glomerella lagenarium (Colletotrichum lagenarium) liquid culture / cucumber / preventative (anthracnose)
# Format: cell-based
# Details: Colletotrichum orbiculare; 20 ppm in the applied formulation; liquid culture (PDB), growth inhibition measured photometrically after 3 to 4 days; compared to untreated control; read-out: disease control
# Method: Mycelia fragments or conidia suspensions of a fungus prepared either freshly from liquid cultures of the fungus or from cryogenic storage, are directly mixed into nutrient broth. DMSO solutions of the test compound (max. 10 mg/ml) are diluted with 0.025% Tween20 by a factor of 50 and 10 μl of this solution is pipetted into a microtiter plate (96-well format). The nutrient broth containing the fungal spores/mycelia fragments is then added to give an end concentration of the tested compound. The test plates are incubated in the dark at 24° C. and 96% relative humidity. The inhibition of fungal growth is determined photometrically after 2 to 7 days, depending on the pathosystem, and percent antifungal activity relative to the untreated check is calculated.
# Fungicidal activity against Glomerella lagenarium (Colletotrichum lagenarium) liquid culture/cucumber/Preventative (Anthracnose)
# Conidia of the fungus from cryogenic storage are directly mixed into nutrient broth (PDB—potato dextrose broth). After placing a (DMSO) solution of test compound into a microtiter plate (96-well format), the nutrient broth containing the fungal spores is added.
# The following compounds at 20 ppm in the applied formulation give at least 80% disease control in this test when compared to untreated control under the same conditions, which show extensive disease development.
row,SMILES,inhibition of growth at 20 ppm [%]
1,"O=C(Cc1ccccc1Cl)N(Cc1ccc(-c2noc(C(F)(F)F)n2)cc1)C1CC1 [Compound 1.94, 2-(2-chlorophenyl)-N-cyclopropyl-N-[[4-[5-(trifluoromethyl)-1,2,4-oxadiazol-3-yl]phenyl]methyl]-acetamide]",≥ 80
2,"C#CCN(Cc1ccc(-c2noc(C(F)(F)F)n2)cc1)C(=O)Cc1ccccc1OC [Compound 1.179, 2-(2-methoxyphenyl)-N-prop-2-ynyl-N-[[4-[5-(trifluoromethyl)-1,2,4-oxadiazol-3-yl]phenyl]methyl]-acetamide]",≥ 80
3,"COc1cccc(C2(C(=O)N(Cc3ccc(-c4noc(C(F)(F)F)n4)cc3)OC)CC2)c1 [Compound 1.72, N-methoxy-1-(3-methoxyphenyl)-N-[[4-[5-(trifluoromethyl)-1,2,4-oxadiazol-3-yl]phenyl]methyl]-cyclopropane-carboxamide]",≥ 80
4,"N#CCC(=O)N(Cc1ccc(-c2noc(C(F)(F)F)n2)cc1)Cc1ccco1 [Compound 1.470, 2-cyano-N-(2-furylmethyl)-N-[[4-[5-(trifluoromethyl)-1,2,4-oxadiazol-3-yl]phenyl]methyl]-acetamide]",≥ 80
5,"CC(C)C(=O)N(Cc1ccc(-c2noc(C(F)(F)F)n2)cc1)OCC=C(Cl)Cl [Compound 1.539, N-(3,3-dichloroallyloxy)-2-methyl-N-[[4-[5-(trifluoromethyl)-1,2,4-oxadiazol-3-yl]phenyl]methyl]-propanamide]",≥ 80
6,"O=C(C1CC1c1ccccc1)N(Cc1ccc(-c2noc(C(F)(F)F)n2)cc1)C1CC1 (centres unmarked) [Compound 1.98, N-cyclopropyl-2-phenyl-N-[[4-[5-(trifluoromethyl)-1,2,4-oxadiazol-3-yl]phenyl]methyl]-cyclopropane-carboxamide]",≥ 80
7,"COCCC(=O)N(Cc1ccc(-c2noc(C(F)(F)F)n2)cc1)OCC=C(Cl)Cl [Compound 1.533, N-(3,3-dichloroallyloxy)-3-methoxy-N-[[4-[5-(trifluoromethyl)-1,2,4-oxadiazol-3-yl]phenyl]methyl]-propanamide]",≥ 80
8,"CON(Cc1ccc(-c2noc(C(F)(F)F)n2)cc1)C(=O)OCc1ccccc1 [Compound 2.10, benzyl N-methoxy-N-[[4-[5-(trifluoromethyl)-1,2,4-oxadiazol-3-yl]phenyl]methyl]-carbamate]",≥ 80
9,"CC1(C(=O)N(Cc2ccc(-c3noc(C(F)(F)F)n3)cc2)C2CC2)CCCCC1 [Compound 1.108, N-cyclopropyl-1-methyl-N-[[4-[5-(trifluoromethyl)-1,2,4-oxadiazol-3-yl]phenyl]methyl]-cyclohexane-carboxamide]",≥ 80
10,"O=C(C1OCCO1)N(Cc1ccc(-c2noc(C(F)(F)F)n2)cc1)OCc1ccc(Cl)cc1 [Compound 1.560, N-[(4-chlorophenyl)-methoxy]-N-[[4-[5-(trifluoromethyl)-1,2,4-oxadiazol-3-yl]phenyl]methyl]-1,3-dioxolane-2-carboxamide]",≥ 80
11,"CC(C)(C)CC(=O)N(Cc1ccc(-c2noc(C(F)(F)F)n2)cc1)C1CC1 [Compound 1.116, N-cyclopropy 1-3,3-dimethyl-N-[[4-[5-(trifluoromethyl)-1,2,4-oxadiazol-3-yl]phenyl]methyl]-butanamide]",≥ 80
12,"CCCON(Cc1ccc(-c2noc(C(F)(F)F)n2)cc1)C(=O)CCOC [Compound 1.293, 3-methoxy-N-propoxy-N-[[4-[5-(trifluoromethyl)-1,2,4-oxadiazol-3-yl]phenyl]methyl]-propanamide]",≥ 80
13,"O=C(CCl)N(Cc1ccc(-c2noc(C(F)(F)F)n2)cc1)OCc1ccc(Cl)cc1 [Compound 1.553, 2-chloro-N-[(4-chlorophenyl)-methoxy]-N-[[4-[5-(trifluoromethyl)-1,2,4-oxadiazol-3-yl]phenyl]methyl]-acetamide]",≥ 80
14,"CON(Cc1ccc(-c2noc(C(F)(F)F)n2)cc1)C(=O)OC(Cl)C(C)C (centres unmarked) [Compound 2.19, (1-chloro-2-methyl-propyl) N-methoxy-N-[[4-[5-(trifluoromethyl)-1,2,4-oxadiazol-3-yl]phenyl]methyl]-carbamate]",≥ 80
15,"O=C(C1CC1F)N(Cc1ccc(-c2noc(C(F)(F)F)n2)cc1)OCC=C(Cl)Cl (centres unmarked) [Compound 1.545, N-(3,3-dichloroallyloxy)-2-fluoro-N-[[4-[5-(trifluoromethyl)-1,2,4-oxadiazol-3-yl]phenyl]methyl]-cyclopropane-carboxamide]",≥ 80
16,"CCCON(Cc1ccc(-c2noc(C(F)(F)F)n2)cc1)C(=O)C1CC1(F)F (centres unmarked) [Compound 1.286, 2,2-difluoro-N-propoxy-N-[[4-[5-(trifluoromethyl)-1,2,4-oxadiazol-3-yl]phenyl]methyl]-cyclopropane-carboxamide]",≥ 80

row,SMILES,inhibition of growth at 20 ppm [%]
1,"O=C(N(Cc1ccc(-c2noc(C(F)(F)F)n2)cc1)CC1CC1)C1(C(F)(F)F)CC1 [Compound 1.203, N-(cyclopropylmethyl)-1-(trifluoromethyl)-N-[[4-[5-(trifluoromethyl)-1,2,4-oxadiazol-3-yl]phenyl]methyl]-cyclopropane-carboxamide]",≥ 80
2,"CCCON(Cc1ccc(-c2noc(C(F)(F)F)n2)cc1)C(=O)CC(C)C [Compound 1.294, 3-methyl-N-propoxy-N-[[4-[5-(trifluoromethyl)-1,2,4-oxadiazol-3-yl]phenyl]methyl]-butanamide]",≥ 80
3,"CCCCC(=O)N(OC)C(C)c1ccc(-c2noc(C(F)(F)F)n2)cc1 (centres unmarked) [Compound 1.281, N-methoxy-N-[1-[4-[5-(trifiuoromethyl)-1,2,4-oxadiazol-3-yl]phenyl]ethyl]-pentanamide]",≥ 80
4,"O=C(C1CC1F)N(Cc1ccc(-c2noc(C(F)(F)F)n2)cc1)OCc1ccc(Cl)cc1 (centres unmarked) [Compound 1.558, N-[(4-chlorophenyl)-methoxy]-2-fluoro-N-[[4-[5-(trifluoromethyl)-1,2,4-oxadiazol-3-yl]phenyl]methyl]-cyclopropane-carboxamide]",≥ 80
5,"COc1ccccc1C(=O)N(Cc1ccc(-c2noc(C(F)(F)F)n2)cc1)OC [Compound 1.7, N,2-dimethoxy-N-[[4-[5-(trifluoromethyl)-1,2,4-oxadiazol-3-yl]phenyl]methyl]-benzamide]",≥ 80
6,"CCC(C)C(=O)N(Cc1ccc(-c2noc(C(F)(F)F)n2)cc1)C(C)CC (centres unmarked) [Compound 1.394, 2-methyl-N-sec-butyl-N-[[4-[5-(trifluoromethyl)-1,2,4-oxadiazol-3-yl]phenyl]methyl]-butanamide]",≥ 80
7,"CCCON(Cc1ccc(-c2noc(C(F)(F)F)n2)cc1)C(=O)CCCOC [Compound 1.321, 4-methoxy-N-propoxy-N-[[4-[5-(trifluoromethyl)-1,2,4-oxadiazol-3-yl]phenyl]methyl]-butanamide]",≥ 80
8,"CON(Cc1ccc(-c2noc(C(F)(F)F)n2)cc1)C(=O)n1ccnc1 [Compound 1.811, N-methoxy-N-[[4-[5-(trifluoromethyl)-1,2,4-oxadiazol-3-yl]phenyl]methyl]-imidazole-1-carboxamide]",≥ 80
9,"CON(Cc1ccc(-c2noc(C(F)(F)F)n2)cc1)C(=O)OCC(C)C [Compound 2.8, isobutyl N-methoxy-N-[[4-[5-(trifluoromethyl)-1,2,4-oxadiazol-3-yl]phenyl]methyl]-carbamate]",≥ 80
10,"CON(Cc1ccc(-c2noc(C(F)(F)F)n2)cc1)C(=O)c1ccc(Cl)cc1Cl [Compound 1.9, 2,4-dichloro-N-methoxy-N-[[4-[5-(trifluoromethyl)-1,2,4-oxadiazol-3-yl]phenyl]methyl]-benzamide]",≥ 80
11,"CCC(C)N(Cc1ccc(-c2noc(C(F)(F)F)n2)cc1)C(=O)CC(C)C (centres unmarked) [Compound 1.380, 3-methyl-N-sec-butyl-N-[[4-[5-(trifluoromethyl)-1,2,4-oxadiazol-3-yl]phenyl]methyl]-butanamide]",≥ 80
12,"CCCON(Cc1ccc(-c2noc(C(F)(F)F)n2)cc1)C(=O)C(CC)COC (centres unmarked) [Compound 1.311, 2-(methoxymethyl)-N-propoxy-N-[[4-[5-(trifluoromethyl)-1,2,4-oxadiazol-3-yl]phenyl]methyl]-butanamide]",≥ 80
13,"CCCON(Cc1ccc(-c2noc(C(F)(F)F)n2)cc1)C(=O)C1(F)CC1 [Compound 1.307, 1-fluoro-N-propoxy-N-[[4-[5-(trifluoromethyl)-1,2,4-oxadiazol-3-yl]phenyl]methyl]-cyclopropane-carboxamide]",≥ 80
14,"CON(C(=O)C1CC1C)C(C)c1ccc(-c2noc(C(F)(F)F)n2)cc1 (centres unmarked) [Compound 1.265, N-methoxy-2-methyl-N-[1-[4-[5-(trifluoromethyl)-1,2,4-oxadiazol-3-yl]phenyl]ethyl]-cyclopropane-carboxamide]",≥ 80
15,"O=C(CC1CC1)N(Cc1ccc(-c2noc(C(F)(F)F)n2)cc1)CC1CC1 [Compound 1.211, 2-cyclopropyl-N-(cyclopropylmethyl)-N-[[4-[5-(trifluoromethyl)-1,2,4-oxadiazol-3-yl]phenyl]methyl]-acetamide]",≥ 80
16,"CON(C(=O)c1ccoc1)C(C)c1ccc(-c2noc(C(F)(F)F)n2)cc1 (centres unmarked) [Compound 1.278, N-methoxy-N-[1-[4-[5-(trifluoromethyl)-1,2,4-oxadiazol-3-yl]phenyl]ethyl]furan-3-carboxamide]",≥ 80
